Reference: publication PMC11199504, “New hemisynthetic derivatives of sphaeropsidin phytotoxins triggering severe endoplasmic reticulum swelling in cancer cells” (Scientific Reports, 2024)

Key:
[1] = test system: 60 cancer cell line panel; details: NCI database value; ref NCI database; read-out: LC50 (NCI); cited from earlier work
A549 = assay: MTT colorimetric assay, A549; format: cell-based; details: Homo sapiens, 72 h treatment, mean ± SEM of six replicates of one experiment (1: 7, 13: 6 independent experiments), resistant to apoptosis, read-out: IC50 determined by MTT assays, A549
From the text: (§1) Cancer cell lines were obtained from either the European Collection of Cell Cultures (ECACC; Salisbury, UK) or the American Type Culture Collection (ATCC; Manassas, VA). The two glioma cell lines were the U373 (ECACC code 08061901) and Hs683 (ATCC HTB-138) cell lines. The carcinoma cell lines were the A549 non-small cell carcinoma cell line (ATCC code CCL 185) and the MCF-7 mammary breast carcinoma cell line (ATCC code HTB-22). The melanoma cell lines were the mouse B16F10 cells (ATCC code CRL-6475) and the human SKMEL-28 cells (ATCC code HTB-72). The ovarian cancer cell line A2780 and its cisplatin-resistant subline A2780cis were obtained from Sigma-Aldrich (St. Louis, MO, USA). Colon cancer HCT116 cells were obtained from ATCC (CCL-247) and the oxaliplatin-resistant subline HCT116/OxR established in the W. Berger lab[59]. The HeLa cell derivative KB-3-1 and the colchicine-selected, highly ABCB1-overexpressing subline KB-C-1 were generously donated by Dr. D. W. Shen, Bethesda, MD. RKOp53wt colon cancer cells together with the RKOp53KO (homozygous knock-out) subline[60] were generously provided by Dr. Vogelstein from John Hopkins University, Baltimore. The correct origin of all cell models was confirmed by STR during performance of the experiments. All cell lines were cultured in RPMI1640 culture medium supplemented with 10% heat-inactivated fetal bovine serum, 2% L-glutamine (0.6 mg/mL), 2% penicillin/streptomycin (200 IU/mL and 200 μg/mL) and 0.1 mg/mL gentamicin.
(§2) The MTT (3-(4,5-dimethylthiazol-2-yl)-2,5-diphenyl tetrazolium bromide) colorimetric assay has been conducted as described previously. Briefly, cells were seeded 24 h before their treatment with each compound for a period of 72 h. The concentrations tested ranged from 10 nM to 100 µM. Each assay was conducted in sextuplicates. The number of independent experiments is mentioned in the legend of the tables.

SKMEL-28 = assay: MTT colorimetric assay, SKMEL-28; format: cell-based; details: Homo sapiens, SK-MEL-28; 72 h treatment; mean ± SEM; resistant to apoptosis; read-out: IC50 determined by MTT assays, SKMEL-28
From the text: as §1, §2

U373 = assay: MTT colorimetric assay, U373; format: cell-based; details: Homo sapiens, U373 MG; 72 h treatment; mean ± SEM; resistant to apoptosis; read-out: IC50 determined by MTT assays, U373
From the text: as §1, §2

MCF7 = assay: MTT colorimetric assay, MCF7; format: cell-based; details: Homo sapiens, 72 h treatment, mean ± SEM, sensitive to apoptosis, read-out: IC50 determined by MTT assays, MCF7
From the text: as §1, §2

Hs683 = assay: MTT colorimetric assay, Hs683; format: cell-based; details: Homo sapiens, Hs 683; 72 h treatment; mean ± SEM; sensitive to apoptosis; read-out: IC50 determined by MTT assays, Hs683
From the text: as §1, §2

B16F10 = assay: MTT colorimetric assay, B16F10; format: cell-based; details: Mus musculus, B16-F10; 72 h treatment; mean ± SEM; sensitive to apoptosis; read-out: IC50 determined by MTT assays, B16F10
From the text: as §1, §2

[2] = test system: A549, SKMEL-28, U373, MCF7, Hs683, B16F10; assay: MTT colorimetric assay, mean of the six cell lines; format: cell-based; details: for IC50: 72 h, mean over the six cell lines, 72 h treatment, read-out: IC50 determined by MTT assays, Mean
From the text: as §1, §2

[3] = test system: SKMEL-28 melanoma and U373 glioblastoma cells; assay: Morphological evaluation by phase contrast microscopy / videomicroscopy; format: cell-based, human; details: videomicroscopy in SKMEL-28 cells
Procedure: For the morphological evaluation of the effects induced by compounds 1 and 13, 6 × 10^4 cells were seeded on glass coverslips placed in 6 well plates a minimum 24 h before their treatment. At the end of the incubation period with the treatment, coverslips were rinsed once in PBS buffer and directly mounted on slides to allow visualization of the cell with an Axio.Imager.M2 microscope (G X40 and G X100).

Row | SMILES | IC50 (A549) | IC50 (SKMEL-28) | IC50 (MCF7) | IC50 (B16F10) | IC50 [2] | CC50 [1] | IC50 (U373) | IC50 (Hs683) | delay in the cellular shrinkage versus SphA 1 [3] | activity in the cancer cell panel ([2]; MTT, alone)
1 | O=c1n(CC2CO2)c(=O)n(CC2CO2)c(=O)n1CC1CO1 (centres unmarked) [Teroxirone] | – | – | – | – | – | 387 µM | – | – | – | –
2 | C=CC1(C)C=C2C(=O)C3(OC(=O)c4ccccc4)OC(=O)C4(CCCC(C)(C)C34)C2(O)CC1 (centres unmarked) [Compound 4] | 1.76 ± 0.29 µM | 2.29 ± 0.17 µM | 1.95 ± 0.14 µM | 1.88 ± 0.1 µM | 2.1 ± 0.11 µM | – | 2.19 ± 0.07 µM | 2.5 ± 0.12 µM | ≥ 24 h | –
3 | COc1cc(NS(C)(=O)=O)ccc1Nc1c2ccccc2nc2ccccc12 [Amsacrine] | – | – | – | – | – | 25 µM | – | – | – | –
4 | C#CCCCC(=O)OC12OC(=O)C3(CCCC(C)(C)C13)C1(O)CCC(C)(C=C)C=C1C2=O (centres unmarked) [Compound 3] | 2.4 ± 0.1 µM | 2.56 ± 0.09 µM | 3.72 ± 0.27 µM | 2.6 ± 0.07 µM | 2.75 ± 0.21 µM | – | 2.37 ± 0.09 µM | 2.83 ± 0.13 µM | ≥ 24 h | –
5 | C=CCCCc1ccc2ccc3cccc4ccc1c2c34 [Compound 14, reference compound] | 78.8 ± 1.26 µM | > 100 µM | 76 ± 1.55 µM | 73.1 ± 1.32 µM | > 87.3 µM | – | > 100 µM | 96.12 ± 0.5 µM | – | inactive
6 | CC1(C=CCCc2ccc3ccc4cccc5ccc2c3c45)C=C2C(=O)C3(O)OC(=O)C4(CCCC(C)(C)C34)C2(O)CC1 (centres unmarked) [Compound 24] | 1.2 ± 0.2 µM | 1.3 ± 0.14 µM | 1.2 ± 0.2 µM | 0.098 ± 0.04 µM | 1.4 ± 0.34 µM | – | 2.2 ± 0.2 µM | 2.4 ± 0.1 µM | – | –

Second part, led by results:

Row | IC50 (A549) | IC50 (SKMEL-28) | IC50 (MCF7) | IC50 (B16F10) | IC50 [2] | SMILES | CC50 [1] | IC50 (U373) | IC50 (Hs683) | delay in the cellular shrinkage versus SphA 1 [3] | activity in the cancer cell panel ([2]; MTT, alone)
7 | 2.96 ± 0.12 µM | 3.07 ± 0.1 µM | 5.36 ± 0.58 µM | 2 ± 0.12 µM | 3.79 ± 0.54 µM | CC1(C=CCCCCBr)C=C2C(=O)C3(O)OC(=O)C4(CCCC(C)(C)C34)C2(O)CC1 (centres unmarked) [Compound 10] | – | 5.01 ± 0.18 µM | 4.35 ± 0.27 µM | – | –
8 | 1.61 ± 0.14 µM | 2.29 ± 0.09 µM | 3.06 ± 0.22 µM | 2.52 ± 0.21 µM | 2.54 ± 0.22 µM | CC1(C=Cc2ccccc2)C=C2C(=O)C3(O)OC(=O)C4(CCCC(C)(C)C34)C2(O)CC1 (centres unmarked) [Compound 12] | – | 3.06 ± 0.07 µM | 2.72 ± 0.11 µM | – | –
9 | 1.92 ± 0.07 µM | 1.61 ± 0.11 µM | 2.09 ± 0.07 µM | 0.78 ± 0.09 µM | 1.7 ± 0.19 µM | C=CC1(C)C=C2C(=O)C3(OC(=O)CCCCC(=O)O)OC(=O)C4(CCCC(C)(C)C34)C2(O)CC1 (centres unmarked) [Compound 5] | – | 1.82 ± 0.14 µM | 1.96 ± 0.18 µM | – | –
10 | 2.66 ± 0.04 µM | 2.74 ± 0.13 µM | 2.48 ± 0.13 µM | 1.81 ± 0.14 µM | 2.64 ± 0.2 µM | COC(=O)CCCC=CC1(C)C=C2C(=O)C3(O)OC(=O)C4(CCCC(C)(C)C34)C2(O)CC1 (centres unmarked) [Compound 6] | – | 2.81 ± 0.08 µM | 3.33 ± 0.1 µM | – | –
11 | 2 ± 0.13 µM | 2.77 ± 0.18 µM | 2.89 ± 0.08 µM | 2.55 ± 0.13 µM | 2.67 ± 0.15 µM | CC1(C=CCCBr)C=C2C(=O)C3(O)OC(=O)C4(CCCC(C)(C)C34)C2(O)CC1 (centres unmarked) [Compound 11] | – | 2.81 ± 0.08 µM | 2.99 ± 0.07 µM | – | –
